{
  "source": "patent US6869945B2",
  "about": "“Pyrrolyl-and imidazolyl-acid amide derivatives useful as inhibitors of PDE4 isozymes” (Pfizer Inc, priority 2001, dated 2005)",
  "key": {"[1]": {"details": "in vivo; cited from earlier work"}, "[2]": {"details": "cited from earlier work"}, "[3]": {"test_system": "PDE4", "details": "catalytic site (Sc); cited from earlier work"}, "[4]": {"details": "54 subjects; cited from earlier work"}, "[5]": {"test_system": "rhinorrhea in the antigen-challenged pig", "details": "cited from earlier work"}, "[6]": {"test_system": "LPS-stimulated ex vivo TNF release and PHA induced lymphocyte proliferation", "details": "oral dose of 300 mg, cited from earlier work"}, "[7]": {"test_system": "guinea-pig trachea", "details": "cited from earlier work"}, "[8]": {"test_system": "guinea-pig macrophage PDE4", "details": "cited from earlier work"}, "[9]": {"test_system": "dextran sulfate induced colitis", "details": "cited from earlier work; for effects in dextran sulfate induced colitis: rat"}, "[10]": {"test_system": "TNF-α mRNA expression", "details": "mouse, in vivo; cited from earlier work"}, "[11]": {"details": "35 rheumatoid arthritis patients, t.i.d.; cited from earlier work"}, "[12]": {"test_system": "epidermal basal cells", "details": "primary culture; cited from earlier work"}, "[13]": {"details": "in vivo; cited from earlier work", "remark": "listed apart in the source"}, "[14]": {"test_system": "psoriatic epidermal slices and keratomed psoriatic epidermal slices", "details": "cited from earlier work"}, "[15]": {"test_system": "human peripheral blood mononuclear cells", "details": "cited from earlier work"}, "[16]": {"test_system": "endotoxin-induced acute renal failure", "details": "cited from earlier work"}, "[17]": {"details": "15 mg twice a day for six weeks; cited from earlier work"}, "[18]": {"test_system": "isolated pulmonary artery rings", "details": "normal rats and rats with hypoxia-induced pulmonary hypertension; cited from earlier work"}, "[19]": {"test_system": "collagen II induced arthritis", "details": "2 mg/kg twice daily for five days before the onset of arthritis; cited from earlier work"}, "[20]": {"test_system": "experimental allergic encephalomyelitis", "details": "in vivo; cited from earlier work"}, "[21]": {"test_system": "croton oil-induced ear inflammation", "details": "mouse; cited from earlier work"}},
  "note": "Entries after “also recorded” stand apart in the source; their conditions may differ.",
  "data": [
    {"smiles": "Nc1nc2c([nH]1)c(=O)n(CC1CC1)c(=O)n2CC1CC1", "note": "[BRL-61,063, cipamfylline]", "values": [
      {"measurement": "emesis / nausea and vomiting", "setting": "[1]", "result": "adverse events of nausea and vomiting"}
    ]},
    {"smiles": "COc1ccc([C@H](Cc2ccncc2)c2ccccc2)cc1OC1CCCC1", "note": "[CDP840]", "values": [
      {"measurement": "late reactions to inhaled allergen / late-phase response", "setting": "[2]; patients with bronchial asthma, oral", "result": "suppression; also recorded: significant inhibition"},
      {"measurement": "adverse events", "setting": "[2]; treatment of asthma", "result": "without any adverse events of nausea or headache"},
      {"measurement": "potency at the Sc relative to SB-207,499", "setting": "[3]", "result": "significantly higher potency"}
    ]},
    {"smiles": "Cc1cc2c3c(c1)C(c1ccccc1)=N[C@@H](NC(=O)c1ccncc1)C(=O)N3CC2", "note": "[CI-1018]", "values": [
      {"measurement": "doses at which no adverse events were reported", "setting": "[4]", "result": "up to 400 mg"}
    ]},
    {"smiles": "CC(C)(O)c1ccc(CNC(=O)c2scnc2Oc2ccc3c(c2)OCO3)c(F)c1", "note": "[Example 5, 4-(Benzo[1,3]dioxol-5-yloxy)-thiazole-5-carboxylic acid 2-fluoro-4-(1-hydroxy-1-methyl-ethyl)-benzylamide]", "values": [
      {"measurement": "melting point", "result": "117 to 118", "unit": "°C"}
    ]},
    {"smiles": "CCCC1C(=O)C2=C(C(CC)=NC2C)c2nc(OC)ccc21", "note": "[Example D-22888]", "values": [
      {"measurement": "rhinorrhea", "setting": "[5]; antigen-challenged pig", "result": "inhibit rhinorrhea"},
      {"measurement": "anti-allergic effect", "setting": "[5]; pig, in vivo", "result": "strong anti-allergic affect"}
    ]},
    {"smiles": "CCNc1ncn(Cc2ccc(OC)c(OC3CCCC3)c2)c2nc(C(C)C)nc1-2", "note": "[Example V-11294A]", "values": [
      {"measurement": "reduction of TNF levels", "setting": "[6]; LPS-stimulated ex vivo TNF release", "result": "effective"},
      {"measurement": "reduction of lymphocyte proliferation", "setting": "[6]; PHA induced", "result": "effective"}
    ]},
    {"smiles": "O=S1(=O)CCN(c2nc(NC3CC3)nc(C3CC3)n2)C1", "note": "[Formula (0.0.56)]", "values": [
      {"measurement": "relaxant activity in a guinea-pig trachea model", "setting": "[7]", "result": "potent relaxant agents"}
    ]},
    {"smiles": "CC1CC1c1nc(NC2CC2)nc(N2CCOCC2)n1", "note": "(centres unmarked) [Formula (0.0.57)]", "values": [
      {"measurement": "relaxant activity in a guinea-pig trachea model", "setting": "[7]", "result": "potent relaxant agents"}
    ]},
    {"smiles": "COc1ccc(S(=O)(=O)C(CCCCc2ccccc2)CC(=O)NO)cc1OC", "note": "(centres unmarked) [Formula (0.1.36)]", "values": [
      {"measurement": "IC50", "setting": "[8]", "result": 1, "unit": "nM"}
    ]},
    {"smiles": "COc1ccc(S(=O)(=O)C(CCCCc2ccccc2)C(C)C(=O)NO)cc1", "note": "(centres unmarked) [Formula (0.1.37)]", "values": [
      {"measurement": "IC50", "setting": "[8]", "result": 30, "unit": "nM"}
    ]},
    {"smiles": "CCCn1c(=O)c2[nH]cnc2n(-c2ccc(Cl)cc2)c1=O", "note": "[LAS31025]", "values": [
      {"measurement": "effects in dextran sulfate induced colitis", "setting": "[9]", "result": "beneficial effects comparable to prednisolone"}
    ]},
    {"smiles": "COc1ccc(C(=O)Nc2c(Cl)cncc2Cl)cc1OC1CCCC1", "note": "[RP73401]", "values": [
      {"measurement": "TNF-α mRNA expression at the pannus/cartilage interface of paw joints", "setting": "[10]", "result": "decrease"},
      {"measurement": "clinical effect, with reduction in C-reactive protein and IL-6 serum levels", "setting": "[11]", "result": "positive trend towards clinical improvement"}
    ]},
    {"smiles": "COc1ccc(CC2CNC(=O)N2)cc1OC1CCCC1", "note": "(centres unmarked) [Ro 20-1724]", "values": [
      {"measurement": "increase in cAMP concentrations", "setting": "[12]", "result": "three-fold increase"},
      {"measurement": "adverse effects", "setting": "[13]", "result": "without adverse systemic or cutaneous effects"},
      {"measurement": "psoriatic lesions compared with vehicle", "setting": "[13]", "result": "improve psoriatic lesions"},
      {"measurement": "cAMP concentrations over controls", "setting": "[14]", "result": "very marked elevation"}
    ]},
    {"smiles": "COc1ccc(CC2CNC(=O)N2)cc1OC1CCCC1", "note": "(centres unmarked) [Ro-201724]", "values": [
      {"measurement": "proliferation of HPBM from normal patients and subjects with atopic dermatitis", "setting": "[15]", "result": "concentration-related inhibition"},
      {"measurement": "endotoxin-induced increases in renal vascular resistance and decreases in renal blood flow and glomerular filtration rate", "setting": "[16]; post-treatment at 10 μg/kg/min", "result": "markedly attenuates"},
      {"measurement": "urinary cAMP excretion", "setting": "[16]; post-treatment at 10 μg/kg/min", "result": "significantly increases"},
      {"measurement": "survival rates for endotoxin-treated rats", "setting": "[16]; rat, in vivo", "result": "improve survival rates"}
    ]},
    {"smiles": "COc1ccc([C@]2(C#N)CC[C@@H](C(=O)O)CC2)cc1OC1CCCC1", "note": "[SB-207,499]", "values": [
      {"measurement": "FEV1 and forced vital capacity (FVC)", "setting": "[17]", "result": "increrases"}
    ]},
    {"smiles": "CCCn1c(=O)c2[nH]cnc2n(-c2ccc(Cl)cc2)c1=O", "note": "[arofylline]", "values": [
      {"measurement": "effects in models of colitis in the rat", "setting": "[9]; in vivo", "result": "beneficial effects"}
    ]},
    {"smiles": "CCCCn1c(=O)c2c(ncn2CC(C)=O)n(CCCC)c1=O", "note": "[denbufylline]", "values": [
      {"measurement": "proliferation of HPBM from normal patients and subjects with atopic dermatitis", "setting": "[15]", "result": "concentration-related inhibition"}
    ]},
    {"smiles": "Cc1[nH]c(=O)c(C#N)cc1-c1ccncc1", "note": "[milrinone]", "values": [
      {"measurement": "effect on relaxation of pulmonary artery rings", "setting": "[18]", "result": "same effect"}
    ]},
    {"smiles": "COc1ccc(C2CNC(=O)C2)cc1OC1CCCC1", "note": "(centres unmarked) [rolipram]", "values": [
      {"measurement": "effects in dextran sulfate induced colitis", "setting": "[9]", "result": "beneficial effects comparable to prednisolone"},
      {"measurement": "appearance of arthritic symptoms", "setting": "[19]", "result": "significantly delayed"},
      {"measurement": "proliferation of HPBM from normal patients and subjects with atopic dermatitis", "setting": "[15]", "result": "concentration-related inhibition"},
      {"measurement": "clinical signs and MRI imaging", "setting": "[20]", "result": "suppress the appearance of clinical signs and abolish abnormalities in MRI imaging"},
      {"measurement": "effect on relaxation of pulmonary artery rings", "setting": "[18]", "result": "potentiates the relaxant activities of isoproterenol and forskolin"},
      {"measurement": "lowest topical dose inhibiting croton oil-induced ear inflammation", "setting": "[21]", "result": 0.03, "unit": "mg per ear"}
    ]}
  ]
}
